Reference: patent US20200352905A1, “6-(2,4-DICHLOROPHENYL)-5-[4-[(3S)-1-(3-FLUOROPROPYL)PYRROLIDIN-3-YL]OXYPHENYL]-8,9-DIHYDRO-7H-BENZO[7]ANNULENE-2-CARBOXYLIC ACID FOR USE IN METASTATIC OR ADVANCED BREAST CANCER PATIENTS” (SANOFI, priority 2019, published 2020)
Several values for one entry are separate records, joined by “and”; a condition that tells them apart may be missing. Equal entries are not always repeated. Entries after “also recorded” stand apart in the source; their conditions may differ. Where two headings read alike, the source gives them in different places.

Tests used:
[1] = TED14856 Part A: plasma pharmacokinetics of compound (1); assay type: in vivo, human; conditions: for Vd/F / Tmax / AUC(0-t) / Cmax: human, plasma, oral; for Tmax: read-out: tmax (median)
[2] = system: ER-positive and HER2-negative advanced breast cancer; test: TED14856 Part B: antitumor activity per RECIST v1.1 by Independent Central Review
Procedure: ORR: antitumor activity as documented by tumor response (CR or PR) defined by RECIST v1.1 determined by Independent Central Review (ICR).
The signal extinction between baseline and on study treatment ^18FES-PET scans constitute the PD readout of the ER engagement. No ^18FES-PET or FDG PET/CT imaging is performed in Part B.
Patients with an early progression as per RECIST v1.1 or who died from disease progression are evaluable for response.

[3] = Pilot food effect on PK (moderate fat breakfast, Day 3 Cycle 1, Part A); assay type: in vivo, human
Procedure: Pilot food effect: A pilot food effect is assessed by PK sampling after drug administration with a moderate fat breakfast on Day 3 of Cycle 1 in all patients treated in Part A. All other dosing in Part A is taken in fasted condition. If results from the QD dosing regimen allow conclusions to be drawn, this will not be implemented for other dosing regimens (eg, BID) that are explored.
For the QD regimen, during Cycle 1, one dose is taken on Day 1 in fasting condition, no dose on Day 2 and repeated administration starts from Day 3. On Day 3 only, the dose is taken in fed condition for a food effect evaluation, and then all subsequent administrations are taken in fasted condition, and at approximately the same time each day (±3 hours). From the conclusions drawn with the initial QD dose regimen, patients treated with other dose regimens are allowed to take Compound (1) in fasted or fed condition. For the BID regimen, the 600 mg dose is split in two drug administrations: 300 mg taken two times a day 12 hours apart (i.e. 2×300 mg)±1 hour with or without food (with one dose only taken in the morning on Day 1, no dose on Day 2 and then repeated BID dosing from Day 3).
The food effect is assessed by comparing AUC0-24 and Cmax between Day 1/Cycle 1 and Day 3/Cycle 1 in Part A.

[4] = repeated 20 mg once daily, Cycle1 Day 22, fasted, N=3
[5] = repeated 150 mg once daily, Cycle1 Day 22, fasted, N=2
[6] = repeated 200 mg once daily, Cycle1 Day 22, fasted, N=3
[7] = repeated 400 mg once daily, Cycle1 Day 22, fasted, N=3
[8] = repeated 600 mg once daily, Cycle1 Day 22, fasted, N=3
[9] = single 20 mg, Cycle1 Day 1, fasted, N = 1
[10] = single 150 mg, Cycle1 Day 1, fasted, N = 1
[11] = single 200 mg, Cycle1 Day 1, fasted, N=4
[12] = single 400 mg, Cycle1 Day 1, fasted, N=3
[13] = single 600 mg, Cycle1 Day 1, fasted, N = 2

## O=C(O)c1ccc2c(c1)CCCC(c1ccc(Cl)cc1Cl)=C2c1ccc(O[C@H]2CCN(CCCF)C2)cc1 [compound (1), 6-(2,4-dichlorophenyl)-5-[4-[(3S)-1-(3-fluoropropyl)pyrrolidin-3-yl]oxyphenyl]-8,9-dihydro-7H-benzo[7]annulene-2-carboxylic acid]
[1]; 400 mg, single 400 mg, Cycle1 Day 1, fasted, N=3, read-out: Vss/F (Mean ± SD)
  Vd/F: 117 ± 40.6 L
[1]; 400 mg, single 400 mg, Cycle1 Day 1, fasted, N=3
  Tmax: 3 h
[1]; 600 mg, repeated 600 mg once daily, Cycle1 Day 22, fasted, N=3, read-out: AUC0-24 (Geometric Mean)
  AUC(0-t): 41700 ng·h/mL
[1]; 600 mg, repeated 600 mg once daily, Cycle1 Day 22, fasted, N=3, read-out: AUC0-24 (Mean ± SD)
  AUC(0-t): 42700 ± 11200 ng·h/mL
[1]; 600 mg, repeated 600 mg once daily, Cycle1 Day 22, fasted, N=3, read-out: Cmax (Geometric Mean)
  Cmax: 5510 ng/mL
[1]; 600 mg, repeated 600 mg once daily, Cycle1 Day 22, fasted, N=3, read-out: Cmax (Mean ± SD)
  Cmax: 5570 ± 962 ng/mL
[1]; 600 mg, repeated 600 mg once daily, Cycle1 Day 22, fasted, N=3
  Tmax: 3 h
[1]; 600 mg, single 600 mg, Cycle1 Day 1, fasted, N = 2, read-out: Vss/F (Geometric Mean)
  Vd/F: 132 L
[1]; 600 mg, single 600 mg, Cycle1 Day 1, fasted, N = 2, read-out: Vss/F (Mean ± SD)
  Vd/F: 137 L
[1]; 600 mg, single 600 mg, Cycle1 Day 1, fasted, N=3, read-out: AUC0-24 (Geometric Mean)
  AUC(0-t): 53400 ng·h/mL
[1]; 600 mg, single 600 mg, Cycle1 Day 1, fasted, N=3, read-out: AUC0-24 (Mean ± SD)
  AUC(0-t): 61100 ± 36300 ng·h/mL
[1]; 600 mg, single 600 mg, Cycle1 Day 1, fasted, N=3, read-out: Cmax (Geometric Mean)
  Cmax: 6160 ng/mL
[1]; 600 mg, single 600 mg, Cycle1 Day 1, fasted, N=3, read-out: Cmax (Mean ± SD)
  Cmax: 7010 ± 4180 ng/mL
[1]; 600 mg, single 600 mg, Cycle1 Day 1, fasted, N=3
  Tmax: 3.03 h
[1]; once-daily administrations up to 200 mg
  accumulation on Day 21/22: moderate accumulation
[1]; once-daily, doses higher than 200 mg
  accumulation on Day 21/22: no accumulation
[1]; [4]
  CLss/F (Mean ± SD): 18.0 ± 13.7 L/h
  Ctrough (Mean ± SD): 8.10 ± 7.16 ng/mL
[1]; [5]
  CLss/F (Mean ± SD): 10.6 NC L/hr
  Ctrough (Geometric Mean): (115) [NC] ng/mL
  Ctrough (Mean ± SD): 126 NC ng/mL
[1]; [6]
  CLss/F (Mean ± SD): 15.3 ± 4.30 L/h
  Ctrough (Geometric Mean): (59.2) [73.6] ng/mL
  Ctrough (Mean ± SD): 76.1 ± 56.0 ng/mL
[1]; [7]
  CLss/F (Mean ± SD): 18.1 ± 17.4 L/h
  Ctrough (Geometric Mean): (253) [84.2] ng/mL
  Ctrough (Mean ± SD): 388 ng/mL and 388 ± 327 ng/mL
[1]; [8]
  CLss/F (Mean ± SD): 14.7 ± 3.96 L/h
  Ctrough (Geometric Mean): (314) [56.8] ng/mL
  Ctrough (Mean ± SD): 348 ± 197 ng/mL
[1]; [9]
  CL/F (Mean ± SD): 12.2 NC L/hr
  t1/2z (Geometric Mean): (4.86) [NC]^b hr
  t1/2z (Mean ± SD): 4.86 NC hr
[1]; [10]
  CL/F (Mean ± SD): 7.26 NC L/hr
  t1/2z (Geometric Mean): (6.42) [NC]^b hr
  t1/2z (Mean ± SD): 6.42 NC hr
[1]; [11]
  CL/F (Mean ± SD): 24.2 ± 17.0 L/h
  t1/2z (Geometric Mean): (7.31) [19.5] hr
  t1/2z (Mean ± SD): 7.41 ± 1.45 h
[1]; [12]
  CL/F (Mean ± SD): 9.86 ± 5.77 L/h
  t1/2z (Mean ± SD): 10.6 ± 2.33 h
[1]; [13]
  CL/F (Mean ± SD): 15.2 NC L/hr
  t1/2z (Geometric Mean): (8.97) [NC]^c hr
  t1/2z (Mean ± SD): 9.45 NC hr
[1]; up to 600 mg
  accumulation after repeated oral administration: limited accumulation
[1]; up to 600 mg, single or multiple once daily administrations
  dose proportionality of exposure (Cmax, AUC0-24h): did not deviate significantly from dose proportionality
[2]; 400 mg, N=46, by ICR
  Complete Response (CR): 0 n
[2]; ESR1 mutated patients (3/19)
  Clinical Benefit Rate (CBR) assessed by ICR: 15.8%
[2]; patients with wild-type ESR1 (9/26)
  Clinical Benefit Rate (CBR) assessed by ICR: 34.6%
[3]; female, human, plasma, oral, overall across doses, read-out: delay of median tmax with food
  Tmax: ~1 h
[3]; overall across doses
  increase of exposure with food: about 45%
[3]; regardless of dose level
  food effect on exposure: did not result in a major effect on exposure; also recorded: minimal
